Results reported in US10828301B2, “2,4-pyrimidinediamine compounds and their uses” (Rigel Pharmaceuticals, Inc, priority 2002, dated 2020).

What was measured:
[1] = test system: cultured human mast cells (CHMC); assay: CHMC low cell density IgE activation: tryptase and LTC4 assays; assay type: cell-based
Description: Pellet CHMC cells (980 rpm, 10 min) and resuspend in pre-warmed MT. Add 65 ul of cells to each 96-well plate. Depending on the degranulation activity for each particular CHMC donor, load 1000-1500 cells/well. Mix four times followed by a 1 hr incubation at 37° C. […] Stimulate cells by adding 25 ul of 6× anti-IgE solution to the appropriate plates. Add 25 ul MT to un-stimulated control wells. Mix twice following addition of the anti-IgE. Incubate at 37° C. for 30 minutes. […] Spin plates at 1000 rpm for 10 min to pellet cells. Transfer 25 ul of supernatant to a 96-well black bottom plate and add 100 ul of freshly diluted tryptase substrate solution to each well. Incubate plates at room temperature for 30 min.
Leukotriene C4 (LTC4) is also quantified using an ELISA kit on appropriately diluted supernatant samples (determined empirically for each donor cell population so that the sample measurement falls within the standard curve) following the supplier's instructions.

[2] = test system: cultured human mast cells (CHMC); assay: CHMC low cell density ionomycin activation: tryptase assay; assay type: cell-based; conditions: read-out: CHMC Ionomycin Tryptase
[3] = Homo sapiens, Mast cell, Low Density CHMC, anti-IgE activation, tryptase readout, read-out: CHMC anti-IgE Tryptase
[4] = Homo sapiens, Mast cell, Low Density CHMC, ionomycin activation, tryptase readout
[5] = Low Density CHMC, anti-IgE activation, tryptase readout, read-out: CHMC anti-IgE Tryptase
[6] = Low Density CHMC, ionomycin activation, tryptase readout

Structure (SMILES)	IC50 [1, 3] [µM]	IC50 [2, 4] [µM]	further results
CNC(=O)COc1cccc(Nc2ncc(F)c(Nc3ccc4c(c3)C(O)CCC4)n2)c1 (racemic) [Compound R926949, 5-Fluoro-N4-(1,2,3,4-tetrahydro-1-hydroxynaphthalen-7-yl)-N2-[3-[(N-methylamino)carbonylmethyleneoxy]phenyl]-2,4-pyrimidinediamine]	–	–	IC50 [1, 5]: 0.089 µM; IC50 [2, 6]: > 10 µM
Oc1ccc(CCNc2ccnc(NCCc3ccc(O)cc3)n2)cc1 [Compound R925790, N2,N4-Bis[2-(4-hydroxyphenyl)ethyl]-2,4-pyrimidinediamine]	> 10	> 10	–
COc1ccc(C(Nc2ncc(F)c(NC(c3ccc(OC)cc3)c3ccc(OC)cc3)n2)c2ccc(OC)cc2)cc1 [Compound R935004, N2,N4-Bis[[di-(4-methoxyphenyl)]methyl]-5-fluoro-2,4-pyrimidinediamine]	> 10	> 10	–
Fc1cnc(Nc2ccc3cc[nH]c3c2)nc1Nc1ccc2cc[nH]c2c1 [Compound R926594, N2,N4-Bis(indol-6-yl)-5-fluoro-2,4-pyrimidinediamine]	> 10	> 10	–
COc1ccc(Nc2ccnc(Nc3ccc(OC)c(-c4ccccc4)c3)n2)cc1-c1ccccc1 [Compound R925806, N2,N4-Bis(4-methoxy-3-phenylphenyl)-2,4-pyrimidinediamine]	> 10	> 10	–
Fc1cnc(Nc2ccccc2-c2ccccc2)nc1Nc1ccccc1-c1ccccc1 [Compound R926398, N2,N4-Bis(2-phenylphenyl)-5-fluoro-2,4-pyrimidinediamine]	> 10	> 10	–
CC(C)(C)OC(=O)C=Nc1cccc(Nc2ncc(F)c(Nc3cccc(N)c3)n2)c1 [Compound R950178, N4-(3-Aminophenyl)-N2-(3-tert-butoxycarbonylmethyleneaminophenyl)-5-fluoro-2,4-pyrimidinediamine]	0.688	> 10	–
Fc1cnc(Nc2ccc3c(c2)OCCO3)nc1NC1CCCCC1 [Compound R925794, N4-Cyclohexyl-N2-(3,4-ethylenedioxyphenyl)-5-fluoro-2,4-pyrimidinediamine]	> 10	> 10	–
CC(C)(C)OC(=O)Nc1ccc(Nc2ncc(F)c(Nc3ccc(NC(=O)OC(C)(C)C)cc3)n2)cc1 [Compound R950120, N2,N4-Bis[4-(tert-butoxycarbonylamino)phenyl]-5-fluoro-2,4-pyrimidinediamine]	3	> 10	–
CNC(=O)Cn1ncc2ccc(Nc3nc(Nc4ccc(OC(C)C)cc4)ncc3F)cc21 [Compound R935224, 5-Fluoro-N2-(4-isopropoxyphenyl)-N4-[1-(N-methylaminocarbonyl)methyl-indazoline-6-yl]-2,4-pyrimidinediamine]	–	–	IC50 [1, 5]: 4.58 µM; IC50 [2, 6]: > 10 µM
COC(=O)c1ccc(-c2cnc(Nc3ccc4c(c3)OCCO4)nc2Nc2ccc3c(c2)OCCO3)cc1 [Compound R925813, N2,N4-Bis(3,4-ethylenedioxyphenyl)-5-(4-methoxycarbonylphenyl)-2,4-pyrimidinediamine]	> 10	> 10	–
O=[N+]([O-])c1cc(Nc2ncc(F)c(Nc3ccc(Cl)c([N+](=O)[O-])c3)n2)ccc1Cl [Compound R950149, N2,N4-Bis(4-chloro-3-nitrophenyl)-5-fluoro-2,4-pyrimidinediamine]	–	–	IC50 ([1]; Homo sapiens, Mast cell, read-out: CHMC anti-IgE Tryptase): 10 µM; IC50 ([2]; Homo sapiens, Mast cell): > 10 µM
CCOc1ccc(Nc2ncc([N+](=O)[O-])c(Nc3ccc(OCC)cc3)n2)cc1 [Compound R940090, N2,N4-Bis-(4-ethoxypenyl)-5-nitro-2,4-pyrimidinediamine]	–	–	IC50 [1, 5]: > 10 µM; IC50 [2, 6]: > 10 µM
COC(=O)Cn1ncc2cc(Nc3ncc(F)c(Nc4ccc5c(c4)OCCO5)n3)ccc21 [Compound R935223, N4-(3,4-Ethylenedioxyphenyl)-5-fluoro-N2-[1-(methoxycarbonyl)methyl-indazoline-5-yl]-2,4-pyrimidinediamine]	–	–	IC50 [1, 5]: 0.469 µM; IC50 [2, 6]: > 10 µM

The next lines start with results.

IC50 [1, 3] [µM]	IC50 [2, 4] [µM]	Structure (SMILES)	further results
0.336	6.34	Fc1cnc(Nc2ccc(-n3cnc(Cl)c3Cl)cc2)nc1Nc1ccc2c(c1)OCCO2 [Compound R926788, N2-[4-(4,5-Dichloro-1H-imidazol-1-yl)phenyl]-N4-(3,4-ethylenedioxyphenyl)-5-fluoro-2,4-pyrimidinediamine]	–
0.5	2.8	Brc1cnc(Nc2ccc3c(c2)OCCO3)nc1Nc1ccc2c(c1)OCCO2 [Compound R925771, N2,N4-Bis(3,4-ethylenedioxyphenyl)-5-bromo-2,4-pyrimidinediamine]	IC50 ([1]; Homo sapiens, Mast cell, Low Density CHMC, anti-IgE activation, LTC4 readout, read-out: CHMC anti-IgE LTC4): 0.22 µM
> 10	> 10	Oc1cccc(Nc2nc(NCCN3CCN(Cc4ccccc4)CC3)ncc2F)c1 [Compound R940261, N2-[2-(N-Benzylpiperazino)ethyl]-5-fluoro-N4-(3-hydroxyphenyl)-2,4-pyrimidinediamine]	–
0.625	3.25	CCOC(=O)c1cc2cc(Nc3ncc(F)c(Nc4ccc5[nH]c(C(=O)OCC)cc5c4)n3)ccc2[nH]1 [Compound R926616, N2,N4-Bis(2-ethoxycarbonylindol-5-yl)-5-fluoro-2,4-pyrimidinediamine]	–
1.02	> 10	N#Cc1cccc(Nc2nc(Nc3cccc(O)c3)ncc2F)c1 [Compound R945109, N4-(3-Cyanophenyl)-5-fluoro-N2-(3-hydroxyphenyl)-2,4-pyrimidinediamine]	–
0.553	4.98	COC(=O)c1cc2cc(Nc3ncc(F)c(Nc4cccc(C(C)C)c4)n3)ccc2o1 [Compound R940283, 5-fluoro-N4-(3-isopropylphenyl)-N2-(2-methoxycarbonylbenzofur-5-yl)-2,4-pyrimidinediamine]	–
2.4	> 10	Oc1cccc(Nc2ncc(-c3ccc4c(c3)OCO4)c(Nc3cccc(O)c3)n2)c1 [Compound R925788, N2,N4-Bis(3-hydroxyphenyl)-5-(3,4-methylenedioxyphenyl)-2,4-pyrimidinediamine]	–
1.25	> 10	COc1cc(Nc2nc(Nc3cccc(O)c3)ncc2F)cc(OC)c1 [Compound R926802, N4-(3,5-Dimethoxyphenyl)-N2-(3-hydroxyphenyl)-5-fluoro-2,4-pyrimidinediamine]	–
0.31	> 10	Oc1cccc(Nc2ncc(F)c(Nc3ccc4[nH]ccc4c3)n2)c1 [Compound R926932, 5-Fluoro-N2-(3-hydroxyphenyl)-N4-[(1H)-indol-5-yl]-2,4-pyrimidinediamine]	–
5.95	> 10	CCOC(=O)c1nc(Nc2ccc3c(c2)OCCO3)nc(Nc2ccc3c(c2)OCCO3)c1N [Compound R925857, 5-Amino-6-ethoxycarbonyl-N2,N4-bis(3,4-ethylenedioxyphenyl)-2,4-pyrimidinediamine]	–
0.326	99	COC(=O)C1Cc2cc(Nc3ncc(F)c(Nc4ccc(Cl)cc4)n3)ccc2O1 (racemic) [Compound R927024, (±)-N4-(4-Chlorophenyl)-N2-(2,3-dihydro-2-methoxycarbonylbenzofuran-5-yl)-5-fluoro-2,4-pyrimidinediamine]	–
3.2	> 10	c1ccc(-c2cnc(Nc3ccc4c(c3)OCCO4)nc2Nc2ccc3c(c2)OCCO3)cc1 [Compound R925784, N2,N4-Bis(3,4-ethylenedioxyphenyl)-5-phenyl-2,4-pyrimidinediamine]	–
0.169	> 10	CC(C)(C)c1cccc(Nc2ncc(F)c(Nc3ccc4c(c3)N=CCO4)n2)c1 [Compound R909246, N4-(1,4-Benzoxazin-6-yl)-N2-(3-tert-butylphenyl)-5-fluoro-2,4-pyrimidinediamine]	–
0.61	> 10	Nc1cc(Nc2ncc(F)c(Nc3ccc(F)c(N)c3)n2)ccc1F [Compound R950159, N2,N4-Bis(3-amino-4-fluorophenyl)-5-fluoro-2,4-pyrimidinediamine]	–
0.665	> 10	Cc1ccc(Nc2ncc(F)c(Nc3ccc(C)c(N)c3)n2)cc1N [Compound R950129, N2,N4-Bis(3-amino-4-methylphenyl)-5-fluoro-2,4-pyrimidinediamine]	–
0.217	> 10	O=C1COc2cc(Nc3ncc(F)c(Nc4cccc(O)c4)n3)ccc2N1 [Compound R908699, N2-(1,4-Benzoxazin-3-on-7-yl)-5-fluoro-N4-(3-hydroxyphenyl)-2,4-pyrimidinediamine]	–
0.255	6.24	COc1cc(Nc2ncc(F)c(Nc3ccc4c(c3)N=CCO4)n2)cc(OC)c1 [Compound R909245, N4-(1,4-Benzoxazin-6-yl)-N2-(3,5-dimethoxyphenyl)-5-fluoro-2,4-pyrimidinediamine]	–
1.62	> 10	COc1ccc(C)c(Nc2ncc(F)c(Nc3ccc4c(c3)OCCO4)n2)c1 [Compound R926896, N4-(3,4-Ethylenedioxyphenyl)-5-fluoro-N2-(5-methoxy-2-methylphenyl)-2,4-pyrimidinediamine]	–
0.922	4.25	Fc1cnc(Nc2ccc(N3CCN(Cc4ccccc4)CC3)cc2)nc1Nc1ccc2c(c1)OCCO2 [Compound R945163, N2-[4-(N-Benzylpiperazino)phenyl]-N4-(3,4-ethylenedioxyphenyl)-5-fluoro-2,4-pyrimidinediamine]	–
